In patent publication US20210186972A1, “FORMULATIONS AND METHODS FOR THE PREVENTION AND TREATMENT OF TUMOR METASTASIS AND TUMORIGENESIS” (THE UNITED STATES OF AMERICA, AS REPRESENTED BY THE …, priority 2018, published 2021):
Where two headings read alike, the source gives them in different places.

Experiments:
C57B/L6 = type: in vivo, mice
NSG PANC1 mice = experiment: Survival in NSG PANC1 pancreatic cancer metastasis model, drug-infused chow; type: in vivo
Excerpt: FIG. 13 is a graph showing the survival rate of mice following metarrestin or vehicle treatment. This graph illustrates that metarrestin treatment extends survival in the NSG PANC1 pancreatic cancer metastasis model. […] The survival rate in the y-axis and the number of days after treatment is on the x-axis. Metarrestin treatment is the solid grey line at 100% survival and the descending black line is the vehicle (*** p<0.001).
FIG. 14 is a graph showing the survival rate of mice following metarrestin or vehicle treatment. This graph illustrates that metarrestin treatment extends survival in the NSG PANC1 pancreatic cancer metastasis model. Metarrestin treatment was provided through drug-infused chow (70 ppm designed to administer 10 mg/kg daily) after mice developed macrometastasis, including visible liver surface deposits. Metarrestin treatment extended the survival time of the mice compared to vehicle treated (NIH 31 Haslan diet). The survival rate in the y-axis and the number of days after treatment is on the x-axis. Metarrestin treatment is the solid grey line and the black line is the vehicle ([…]).
To evaluate whether metarrestin treatment can provide a survival advantage by preventing metastatic progression, the above experiment was repeated, but mice were followed until death or when animals reached study endpoint. NSG mice were injected with 60,000 3D PANC1 cells (details of assay below), and daily treatment with metarrestin-infused chow (10 mg/kg; 70 ppm, micronized particles added to NIH 31 Haslan rodent diet) began 6 weeks after tumor cell implantation, when metastasis was limited to micrometastasis by histopathological examination (FIG. 63). Animals in the control group receiving regular chow started to die 25 days after the start of treatment, whereas the metarrestin treatment group had no mortality more than 90 days after the start of treatment (FIG. 13). […]
Pancreatic cancer model: 60,000 luciferase-tagged PANC1 spheres were injected into the pancreas of Nod/IL2gamma (null) mice (obtained from NCI Mouse Repository, Frederick, Md.; on ACUC-approved animal protocol SB-211-2). […] Organs were then individually dissected, subjected to quantitative xenogene imaging, and fixed with 4% non-buffered formaldehyde. Impact of metastatic burden was calculated and graphed as liver and lung/primary tumor ratios based on a five-minute photon count for the liver normalized to liver weight (g), which was then compared to the average photon count per weight (g) of the primary pancreatic tumor of the same animal. […] Liver metastasis/mm^2 was calculated as the sum of the […] of the individual metastases. Tumor volume (mm^3) was calculated as (L×W2), where L=length (mm) and W=width (mm). Animal survival was measured from the first day of treatment until death. […]

in vivo = experiment: in vivo; set-up: species or system BALB/c mice; conditions: mouse
Description: Metarrestin was administered to female BALB/c mice, n=3 in the single dose and the repeat doses were administered to SCID-beige mice, n=3 per time point. The repeat dose study mice were given daily intraperitoneal injections for 4 weeks, with concentration measured 24 h after the last dose. Metarrestin was formulated in 5% NMP+20% PEG400+75% (10% […] in water).
BALB/c mice, 17-19 g, female, n=66, were purchased and had free access to food and water. They were dosed with metarrestin at 5 or 25 mg/kg (10 ml/kg) in 5% NMP [NMP (Sigma-Aldrich cat #270458), 20% PEG400 (Sigma-Aldrich cat #202398), and 75% 10% HPBCD (Sigma-Aldrich cat #H107)] via lower left abdominal quadrant injection (n=33 each dose). The animals were anesthetized with isoflurane and restrained manually at the designated time points. Approximately 120 μL of blood were taken from the animals into K2EDTA tubes via retro-orbital puncture. Blood samples were placed on ice and centrifuged (2,000 g, 5 min under 4° C.) to obtain plasma samples within 15 minutes. An aliquot of 20 μL plasma sample was protein-precipitated with 200 μL acetonitrile that contained 50 ng/mL IS (dexamethasone). […] Twenty-four hours after the final dose, the concentrations of metarrestin in plasma were analyzed.

[1] = female, C57B/L6, mouse, in vivo
[2] = female, C57B/L6, mouse, in vivo, 3 months
[3] = male, C57B/L6, mouse, in vivo, 3 months
[4] = infused chow 10 mg/kg (70 ppm) after macrometastasis visible

N=c1c2c(-c3ccccc3)c(-c3ccccc3)n(Cc3ccccc3)c2ncn1[C@H]1CC[C@H](O)CC1 [metarrestin]
2/4: Kidney mineralization (C57B/L6; [2]) | Spleen extramedullary hematopoiesis, erythrocytic, increased erythropoiesis (C57B/L6; [2]) | Kidney dilatation, tubule (C57B/L6; [3]) | Kidney mineralization (C57B/L6; [3])
4.6 to 5.5 h: half-life (in vivo; female, BALB/c, ip, 25 mg/kg)
1/4: Kidney regeneration, tubule (C57B/L6; C57B/L6 Metarrestin Female F03) | Brain hemorrhage (C57B/L6; C57B/L6 Metarrestin Male M03) | Epididymis aspermia (C57B/L6; C57B/L6 Metarrestin Male M03) | Kidney infarct (C57B/L6; [2]) | Cecum proliferative typhlitis (C57B/L6; male, C57B/L6, mouse, in vivo) | Femur marrow hyperplasia, granulocytic (C57B/L6; male, C57B/L6, mouse, in vivo) | Heart mineralization (C57B/L6; male, C57B/L6, mouse, in vivo) | Kidney vacuolation. proximal tubule (C57B/L6; [3]) | Spleen melanin (C57B/L6; [3]) | Testis degeneration, seminiferous tubule (C57B/L6; [3]) | Thymus cyst (C57B/L6; [3]) | Vertebra hyperplasia, granulocytic, marrow (C57B/L6; [3])
more than 90 days: Time after start of treatment without mortality (NSG PANC1 mice; infused chow 10 mg/kg (70 ppm) from 6 weeks after implantation (micrometastasis))
high bioavailability: Bioavailability (in vivo)
no significant difference: Primary tumor growth in the pancreas (NSG PANC1 mice; [4])
4/4: Liver inflammation, subacute (C57B/L6; [2]) | Lung lymphocytic infiltrate (C57B/L6; [2]) | Adrenal lipogenic pigment (C57B/L6; [3])
preserved organs: Organ replacement with tumors at necropsy (liver, lungs) (NSG PANC1 mice; [4])
more than two-fold: Extension of median overall survival over control group (NSG PANC1 mice; [4])
3/4: Kidney regeneration, tubule (C57B/L6; C57B/L6 Metarrestin Male M03) | Gall Bladder inflammation, acute (C57B/L6; [1]) | Ileum segmented filamentous bacteria (C57B/L6; [1]) | Adrenal hyperplasia, subcapsular cell (C57B/L6; [2]) | Kidney dilatation, tubule (C57B/L6; [2]) | Gall Bladder inflammation, acute (C57B/L6; male, C57B/L6, mouse, in vivo) | Ileum segmented filamentous bacteria (C57B/L6; [3]) | Liver inflammation, subacute (C57B/L6; [3]) | Lung lymphocytic infiltrate (C57B/L6; [3])
